Reference: article PMC2939913 (Journal of medicinal chemistry, 2010)
Several values for one entry are separate records, joined by “and”; a condition that tells them apart may be missing. Identical values can stand only once. One block for each compound: values may come before it.

Tests used:
P. falciparum D6 (CQS) = assay: Inhibition of P. falciparum growth; type: cell-based; settings: Plasmodium falciparum, D6, 72 h, read-out: IC50 (nM) for P. falciparum D6
[1] = tested on: CQR Dd2-infected RBCs (P. falciparum); assay: Accumulation experiment in parasitized red blood cells, Dd2; type: cell-based; settings: for Uptake: by 6 × 10^7 PRBCs after 1 hour of incubation, initial medium ∼ 5 µM, ±5%
P. falciparum Dd2 (CQR) = assay: Inhibition of P. falciparum growth; type: cell-based; settings: Plasmodium falciparum, DD2, 72 h, read-out: IC50 (nM) for P. falciparum Dd2
[2] = tested on: CQS D6-infected RBCs (P. falciparum); assay: Accumulation experiment in parasitized red blood cells, D6; type: cell-based; settings: for Uptake: by 6 × 10^7 PRBCs after 1 hour of incubation, initial medium ∼ 5 µM, ±5%
[3] = tested on: hemozoin production in D6 P. falciparum; assay: Hemozoin inhibition in cell culture; type: cell-based; settings: 24 hours
[4] = General cytotoxicity, mitogen-stimulated murine spleenic lymphocytes; type: cell-based; settings: mouse, mitogen-stimulated murine splenic lymphocytes
β-hematin = β-hematin inhibition; type: biochemical; settings: for IC50: read-out: β-hematin inhibition, 40 µM heme, acetate pH 4.8, Tween20, 24 hours at 37°C
[5] = tested on: hemozoin production in Dd2 P. falciparum; assay: Hemozoin inhibition in cell culture; type: cell-based
P. berghei = assay: Mouse efficacy against P. berghei; settings: for Mouse survival (days): 1 × 30 mg/kg
[6] = Signs of toxicity when administered to mice; type: in vivo; settings: administered to mice in the P. berghei experiments
[7] = Heme-drug binding by optical titration; settings: apparent; 2:1 heme to drug stoichiometry; 5 µM heme, phosphate buffer pH 5.7
[8] = [concentration in DV / concentration in medium]

SMILES: CCN(CC)CCCC(C)Nc1ccnc2cc(Cl)ccc12 (stereo not shown) [CQ, chloroquine, reference compound]
- IC50 (P. falciparum D6 (CQS)): 6.9 nM
- Uptake [1]: 5e-09 mol
- IC50 (P. falciparum Dd2 (CQR)): 102 nM
- Uptake [2]: 7e-09 mol

SMILES: CN(CCCNc1ccnc2cc(Cl)ccc12)CCCN1c2ccccc2CCc2ccccc21 [Compound 1]
- hemozoin formation by microscopy ([3]; 100 nM drug): some hemozoin present
- Accumulation ratio [1, 8]: 38,000
- Uptake [1]: 1.8e-08 mol
- IC50 [4]: 700 nM
- IC50 (β-hematin): 9000 nM
- hemozoin formation by microscopy ([5]; 100 nM drug, 24 hours (not shown)): also the case
- Accumulation ratio [2, 8]: 32,000
- Uptake [2]: 1.6e-08 mol
- increase of DV concentration over initial medium concentration ([2]; initial medium concentration ∼ 5 µM): 13,000 fold
- Mouse survival (days) (P. berghei; oral): Mice euthanized day 3

SMILES: Clc1ccc2c(NCCN3CCN(C(c4ccccc4)c4ccccc4)CC3)ccnc2c1 [Compound 4, N-(2-(4-Benzhydrylpiperazin-1-yl)ethyl)-7-chloroquinolin-4-amine]
- IC50 [4]: 1900 nM
- IC50 (β-hematin): 2500 nM
- Mouse survival (days) (P. berghei; subcutaneous): Mice euthanized day 3
- increase in survival days compared to control animals (P. berghei; 4 × 30 mg/kg, oral): ~10 days

- IC50 (β-hematin): 3500 nM
SMILES: Clc1ccc2c(NCCCN3CCN(C(c4ccccc4)c4ccccc4)CC3)ccnc2c1 [Compound 5, N-(3-(4-Benzhydrylpiperazin-1-yl)propyl)-7-chloroquinolin-4-amine]
- IC50 [4]: 1100 nM

SMILES: Clc1ccc2c(NCCCN3CCCN(C(c4ccccc4)c4ccccc4)CC3)ccnc2c1 [Compound 6, N-(3-(4-Benzhydryl-1,4-diazepan-1-yl)propyl)-7-chloroquinolin-4-amine]
- IC50 [4]: 700 nM

SMILES: Clc1ccc(C(c2ccccc2)N2CCN(CCNc3ccnc4cc(Cl)ccc34)CC2)cc1 (stereo not shown) [Compound 7, 7-Chloro-N-(2-(4-((4-chlorophenyl)(phenyl)methyl)piperazin-1-yl)ethyl)quinolin-4-amine]
- IC50 [4]: 1400 nM

SMILES: Clc1ccc(C(c2ccccc2)N2CCN(CCCNc3ccnc4cc(Cl)ccc34)CC2)cc1 (stereo not shown) [Compound 8, 7-Chloro-N-(3-(4-((4-chlorophenyl)(phenyl)methyl)piperazin-1-yl)propyl)quinolin-4-amine]
- IC50 [4]: 800 nM

SMILES: Clc1ccc(C(c2ccccc2)N2CCCN(CCCNc3ccnc4cc(Cl)ccc34)CC2)cc1 (stereo not shown) [Compound 9, 7-Chloro-N-(3-(4-((4-chlorophenyl)(phenyl)methyl)-1,4-diazepan-1-yl)propyl)quinolin-4-amine]
- IC50 [4]: 900 nM

SMILES: Fc1ccc(C(c2ccc(F)cc2)N2CCN(CCCNc3ccnc4cc(Cl)ccc34)CC2)cc1 [Compound 10, N-(3-(4-(Bis(4-fluorophenyl)methyl)piperazin-1-yl)propyl)-7-chloroquinolin-4-amine]
- IC50 [4]: 4100 nM

SMILES: Clc1ccc2c(NCCN3CCCN(C4c5ccccc5-c5ccccc54)CC3)ccnc2c1 [Compound 11, N-(2-(4-(9H-Fluoren-9-yl)-1,4-diazepan-1-yl)ethyl)-7-chloroquinolin-4-amine]
- IC50 [4]: 2500 nM

SMILES: Clc1ccc2c(NCCCN3CCCN(C4c5ccccc5-c5ccccc54)CC3)ccnc2c1 [Compound 12, N-(3-(4-(9H-Fluoren-9-yl)-1,4-diazepan-1-yl)propyl)-7-chloroquinolin-4-amine]
- IC50 [4]: 2500 nM

- IC50 (β-hematin): 10000 nM
SMILES: CN(CCCN1c2ccccc2CCc2ccccc21)CCNc1ccnc2cc(Cl)ccc12 [Compound 13, N^1-(7-chloroquinolin-4-yl)-N^2-(3-(10,11-dihydro-5H-dibenzo[b,f]azepin-5-yl)propyl)-N^2-methylethane-1,2-diamine]
- IC50 [4]: 1400 nM

SMILES: Clc1ccc2c(NCCCN3CCN(C(c4ccccc4)(c4ccccc4)c4ccccc4)CC3)ccnc2c1 [Compound 15, 7-Chloro-N-(3-(4-tritylpiperazin-1-yl)propyl)quinolin-4-amine]
- β-hematin inhibition (µM) (β-hematin; IC50, 40 µM heme, acetate pH 4.8, Tween20, 24 hours at 37°C): insoluble
- Mouse survival (days) (P. berghei; subcutaneous): Mice euthanized day 3
- mice cured (P. berghei; 4 × 30 mg/kg, oral, parasite-free on day 30 post-infection): 1/3

- IC50 (β-hematin): 14000 nM
SMILES: Clc1ccc2c(NCCCN3CCN(C4C5CC6CC(C5)CC4C6)CC3)ccnc2c1 (stereo not shown) [Compound 17, N-(3-(4-(Adamant-2-yl)piperazin-1-yl)propyl)-7-chloroquinolin-4-amine]

- IC50 (β-hematin): ~2000 nM and 2000 nM
SMILES: Clc1ccc2c(NCCN3CCC(NC(c4ccccn4)c4ccccn4)CC3)ccnc2c1 [Compound 21, 7-Chloro-N-(2-(4-(dipyridin-2-ylmethylamino)piperidin-1-yl)ethyl)quinolin-4-amine]
- mice cured (P. berghei; second trial, 4 × 44 mg/kg, oral (equimolar to 30 mg/kg CQ)): 3 out of 3 and 3/3

SMILES: Clc1ccc2c(NCCCN3CCC(NC(c4ccccn4)c4ccccn4)CC3)ccnc2c1 [Compound 22, 7-Chloro-N-(3-(4-(dipyridin-2-ylmethylamino)piperidin-1-yl)propyl)quinolin-4-amine]
- hemozoin formation by microscopy ([3]; 10 nM drug): appeared to preclude hemozoin formation
- IC50 (β-hematin): 1600 nM
- IC50 (P. falciparum Dd2 (CQR)): 1.6 nM
- hemozoin formation by microscopy ([5]; 10 nM drug, 24 hours): appeared to preclude hemozoin formation
- signs of toxicity in mice [6]: no obvious signs of toxicity
- mice cured (P. berghei; 4 × 30 mg/kg, oral, parasite-free on day 30 post-infection, 30 mg/kg): two of the three and 2/3
- mice cured (P. berghei; second trial, 4 × 46 mg/kg, oral (equimolar to 30 mg/kg CQ)): 9 out of 10 and 9/10

- Kd [µM (app)] [7]: no activity
SMILES: OCCN1CCN(C(c2ccccc2)c2ccccc2)CC1 [Compound 26, 2-(4-Benzhydrylpiperazin-1-yl)ethanol]
